The assay deals with GlmU (Mycobacterium tuberculosis, UniProt P9WMN3). Kind of assay: […]; double reciprocal plots; […]. The assay is classed as biochemical.

Experimental findings from PMC6652808, “The Inhibitory Effect of GlmU Acetyltransferase Inhibitor TPSA on Mycobacterium tuberculosis May Be Affected Due to Its Methylation by Methyltransferase Rv0560c” (Frontiers in Cellular and Infection Microbiology, 2019) are described below.

In general, IC50 refers to the concentration that gives 50% inhibition.

Sequence of GlmU (P9WMN3 2-495): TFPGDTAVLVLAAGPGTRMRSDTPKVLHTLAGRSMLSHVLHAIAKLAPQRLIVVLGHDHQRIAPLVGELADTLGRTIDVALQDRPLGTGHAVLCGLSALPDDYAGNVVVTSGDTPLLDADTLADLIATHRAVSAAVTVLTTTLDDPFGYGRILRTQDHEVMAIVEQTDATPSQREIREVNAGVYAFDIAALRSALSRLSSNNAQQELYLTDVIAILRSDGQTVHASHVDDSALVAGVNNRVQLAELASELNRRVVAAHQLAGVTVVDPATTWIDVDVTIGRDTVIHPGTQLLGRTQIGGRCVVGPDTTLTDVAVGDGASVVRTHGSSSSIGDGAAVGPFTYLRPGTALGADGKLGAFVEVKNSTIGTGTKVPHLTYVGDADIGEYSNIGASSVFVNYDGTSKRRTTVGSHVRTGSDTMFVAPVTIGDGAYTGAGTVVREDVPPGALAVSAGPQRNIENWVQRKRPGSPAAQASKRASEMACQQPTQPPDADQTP

`O=C(O)Cc1ccc(C(=O)CSc2nccc(-c3cccs3)n2)s1` [TPSA, 2-[5-(2-{[4-(2-thienyl)-2-pyrimidinyl]sulfanyl}acetyl)-2-thienyl]acetic acid] had an IC50 of 5.3 ± 0.48 µM.
